The values below come from patent publication US20030166511A1, “Cardioprotective composition comprising ceruloplasmin and uses thereof” (GESTILAB INC., priority 1999, published 2003).

Like-named read-outs stand apart in the source and are kept apart here.

For data set [1] the following is noted: cited from earlier work; for concentrations ensuring good antioxidative activity in vitro: in vitro (Atanasiu et al., 1998).
A further data set has as its system isolated rat hearts. Particulars: isolated rat heart, blood-free model (Chahine et al., 1991; Atanasiu et al, 1995), cited from earlier work.
The conditions of data set [2]: conditions without oxidative stress (Atanasiu et al, 1996); cited from earlier work.
Data set [3] relates to ischemic isolated rat heart. Kind of data set: Reperfusion-induced irreversible ventricular fibrillation in isolated rat heart submitted to partial ischemia-reperfusion (Langendorff). Particulars: TRIAD (S2) 0.16×, CP 0.5 μM. As to the method: All experiments were conformed to rules of the Guide for the care and use of laboratory animals published by the US National Institutes of Health (NIH publication No 85-23, revised 1985). Adult male Wistar rats (225-250 g) were anaesthetized with sodium pentobarbitone intra-peritoneally (0.1 ml/100 g body weight) and then heparinized (500 UI intra-peritoneally). […]
Hearts were perfused for a 10 min control period with KH buffer, and then […] with KH+TRIAD for stabilization. […] At the end of this 10 min arterial occlusion period, reperfusion was initiated by cutting the ligature with a scalpel bled and rhythm disturbances were monitored for 15 min more. Left ventricular pressure and epicardial ECG were continuously monitored before and during ischemia and reperfusion. […]
Rat hearts were first perfused for 10 min with KH buffer and then for another 10 min with the same buffer containing TRIAD (S2) prepared as described above (section 2.2), until equilibration of cardiodynamic variables was achieved. […] Left ventricular pressure and epicardial ECG were continuously monitored before and during ischemia and reperfusion. […]
Arrhythmia were defined according to the Lambeth convention (Walker et al., 1988). ECG recordings were analyzed for the incidence of irreversible ventricular fibrillation (IVF) and for the time of normal sinus. […]

Turning to Albumin [reference compound], the “concentrations ensuring good antioxidative activity in vitro” value in data set [1] was 260 µM.

Consider Ceruloplasmin [CP], for which, in the data set with isolated rat hearts, the cardioprotective concentrations entry is recorded as “up to 2 μM” and the cardiotoxic concentration was at least 4 µM. Further, the cardiotoxic concentration with isolated rat hearts (listed as Ceruloplasmin) was 4 µM. In data set [2], the electrophysiological effect entry is “prolongation of Effective Refractory Period (ERP) and of the action potential (AP)”. Further, in data set [1], the “concentrations ensuring good antioxidative activity in vitro” value was 2 to 15 µM. Besides, the “scavenging capacity compared with other antioxidants” value in data set [1] (in vitro, β-phycocyanin indicator) was “better scavenging capacity than SOD and than deferoxamine”. Moreover, the “incidence of reperfusion-induced irreversible ventricular fibrillation (IVF)” value in data set [3] (isolated rat heart, 10 min regional ischemia then reperfusion, control 100%) is given as 75%. Also, the cardioprotection in data set [3] (reduction of IVF incidence versus control (100%)) is 25%.
